Laboratory results published in US20140135310A1, “SULPHONAMIDE DERIVATIVES OF ALICYCLIC AMINES FOR THE TREATMENT OF CENTRAL NERVOUS SYSTEM DISEASES” (Adamed Sp. z o.o., priority 2011, published 2014).

Assays:
[1] = molecular target: T1, 5-HT1A receptor (rat hippocampus) (Rattus norvegicus, UniProt P19327); experiment: Radioligand binding assay, serotoninergic 5-HT1A receptors; conditions: binding assay result in %, Table 5a;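 also: test compound at 1 µM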
T1 construct: hippocampus; from tissue; host or cells: rat hippocampus
T1 sequence (P19327 1-422): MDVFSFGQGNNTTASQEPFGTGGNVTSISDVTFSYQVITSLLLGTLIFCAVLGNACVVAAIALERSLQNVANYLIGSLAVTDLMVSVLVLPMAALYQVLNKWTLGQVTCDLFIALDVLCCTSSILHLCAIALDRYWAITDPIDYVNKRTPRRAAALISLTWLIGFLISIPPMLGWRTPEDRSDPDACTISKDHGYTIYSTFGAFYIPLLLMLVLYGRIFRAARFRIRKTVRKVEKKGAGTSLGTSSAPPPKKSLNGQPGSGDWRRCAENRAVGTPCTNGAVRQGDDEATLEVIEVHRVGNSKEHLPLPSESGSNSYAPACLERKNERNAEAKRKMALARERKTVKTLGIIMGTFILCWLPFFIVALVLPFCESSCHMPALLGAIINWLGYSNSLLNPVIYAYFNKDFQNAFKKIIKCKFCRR

[2] = molecular target: T2, 5-HT6 receptor (Homo sapiens, UniProt P50406); experiment: Radioligand binding assay, serotoninergic 5-HT6 receptors; conditions: binding assay result in %, Table 5a;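 also: test compound at 1 µM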
T2 construct: purchased PerkinElmer
T2 sequence (P50406 whole entry): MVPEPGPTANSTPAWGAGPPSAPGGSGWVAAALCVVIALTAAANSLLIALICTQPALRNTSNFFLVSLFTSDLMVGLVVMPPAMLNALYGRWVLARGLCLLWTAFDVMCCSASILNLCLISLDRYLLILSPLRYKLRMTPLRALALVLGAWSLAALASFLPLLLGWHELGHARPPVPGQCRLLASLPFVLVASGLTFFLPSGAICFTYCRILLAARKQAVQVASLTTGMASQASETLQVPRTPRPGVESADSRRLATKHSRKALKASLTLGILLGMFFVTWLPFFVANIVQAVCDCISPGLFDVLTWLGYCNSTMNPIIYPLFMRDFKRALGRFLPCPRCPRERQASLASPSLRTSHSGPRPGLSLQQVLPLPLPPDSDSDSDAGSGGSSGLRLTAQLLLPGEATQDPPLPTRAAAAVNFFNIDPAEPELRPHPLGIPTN
Outline: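 Values are Ki from Cheng–Prusoff, taking IC50 from Hill nonlinear regression of competition curves and KD from a Scatchard plot. Specific binding was total minus binding with excess unlabelled ligand. Radioligand displacement was detected by scintillation counting, and data were also reported as percent of control specific binding.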

[3] = molecular target: dopaminergic receptors D2 (Homo sapiens, UniProt P14416); experiment: Radioligand binding assay, dopaminergic D2 receptors; conditions: binding assay, test compound 1×10^−6 M
Chain of dopaminergic receptors D2 (P14416 whole entry): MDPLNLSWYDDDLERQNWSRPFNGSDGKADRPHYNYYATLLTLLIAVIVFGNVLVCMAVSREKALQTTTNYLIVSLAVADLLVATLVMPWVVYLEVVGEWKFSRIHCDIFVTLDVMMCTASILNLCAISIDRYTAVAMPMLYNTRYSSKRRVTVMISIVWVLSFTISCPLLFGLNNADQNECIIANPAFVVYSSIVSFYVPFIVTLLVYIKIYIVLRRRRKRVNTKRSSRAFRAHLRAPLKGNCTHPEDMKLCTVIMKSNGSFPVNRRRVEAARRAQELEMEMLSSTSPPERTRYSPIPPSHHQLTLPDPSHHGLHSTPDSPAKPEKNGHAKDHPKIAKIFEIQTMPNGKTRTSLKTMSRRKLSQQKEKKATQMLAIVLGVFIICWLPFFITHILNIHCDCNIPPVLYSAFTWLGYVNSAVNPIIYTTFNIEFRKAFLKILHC
Outline: (§1)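 Competition radioligand binding at human D2, D3 and D4.4 receptors, detected by scintillation counting; nonspecific binding defined with excess unlabelled ligand. Results as percent inhibition of control specific binding; IC50 by Hill-equation nonlinear regression; Ki via Cheng-Prusoff, with radioligand KD from Scatchard plot.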

[4] = molecular target: dopaminergic receptors D3 (Homo sapiens, UniProt P35462); experiment: Radioligand binding assay, dopaminergic D3 receptors; conditions: test compound 1×10^−6 M
Chain of dopaminergic receptors D3 (P35462 whole entry): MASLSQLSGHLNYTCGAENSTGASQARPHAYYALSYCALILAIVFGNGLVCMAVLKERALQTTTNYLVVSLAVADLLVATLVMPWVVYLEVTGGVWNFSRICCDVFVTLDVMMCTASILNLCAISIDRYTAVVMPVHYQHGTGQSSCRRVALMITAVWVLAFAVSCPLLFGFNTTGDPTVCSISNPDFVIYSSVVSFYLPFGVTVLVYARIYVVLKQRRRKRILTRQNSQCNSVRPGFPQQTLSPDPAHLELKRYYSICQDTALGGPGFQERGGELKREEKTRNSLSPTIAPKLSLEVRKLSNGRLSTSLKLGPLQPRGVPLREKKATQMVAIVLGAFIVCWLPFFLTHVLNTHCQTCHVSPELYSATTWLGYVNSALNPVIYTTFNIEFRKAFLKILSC
Outline: as §1

[5] = molecular target: T3, 5-HT7 receptor (Homo sapiens, UniProt P34969); experiment: Radioligand binding assay, serotoninergic 5-HT7 receptors; conditions: binding assay result in %, Table 5a;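 also: test compound at 1 µM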
T3 construct: purchased PerkinElmer
T3 sequence (P34969 whole entry): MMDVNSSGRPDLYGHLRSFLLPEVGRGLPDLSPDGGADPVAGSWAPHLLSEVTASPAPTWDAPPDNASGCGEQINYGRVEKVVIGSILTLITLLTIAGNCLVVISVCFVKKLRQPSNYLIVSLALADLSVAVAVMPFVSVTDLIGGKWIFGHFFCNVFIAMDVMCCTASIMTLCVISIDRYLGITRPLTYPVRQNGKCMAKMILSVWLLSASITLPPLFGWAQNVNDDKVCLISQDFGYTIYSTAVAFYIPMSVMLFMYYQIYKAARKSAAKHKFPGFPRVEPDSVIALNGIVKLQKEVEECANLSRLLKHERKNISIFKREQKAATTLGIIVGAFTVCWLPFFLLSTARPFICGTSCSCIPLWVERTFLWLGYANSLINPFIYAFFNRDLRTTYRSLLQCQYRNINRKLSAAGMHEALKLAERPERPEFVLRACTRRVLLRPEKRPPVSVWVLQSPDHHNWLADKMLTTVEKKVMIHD
Outline: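 Competition binding at human 5-HT7 receptors with a radioligand, detected by scintillation counting; non-specific binding was defined with excess unlabelled ligand. IC50 came from Hill-equation fits of competition curves, and Ki from Cheng–Prusoff using radioligand concentration and Scatchard-derived KD.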

[6] = molecular target: T4, 5-HT2A receptor (Homo sapiens, UniProt P28223); experiment: Radioligand binding assay, serotoninergic 5-HT2A receptors; conditions: binding assay result in %, Table 5a
T4 construct: purchased PerkinElmer
T4 sequence (P28223 whole entry): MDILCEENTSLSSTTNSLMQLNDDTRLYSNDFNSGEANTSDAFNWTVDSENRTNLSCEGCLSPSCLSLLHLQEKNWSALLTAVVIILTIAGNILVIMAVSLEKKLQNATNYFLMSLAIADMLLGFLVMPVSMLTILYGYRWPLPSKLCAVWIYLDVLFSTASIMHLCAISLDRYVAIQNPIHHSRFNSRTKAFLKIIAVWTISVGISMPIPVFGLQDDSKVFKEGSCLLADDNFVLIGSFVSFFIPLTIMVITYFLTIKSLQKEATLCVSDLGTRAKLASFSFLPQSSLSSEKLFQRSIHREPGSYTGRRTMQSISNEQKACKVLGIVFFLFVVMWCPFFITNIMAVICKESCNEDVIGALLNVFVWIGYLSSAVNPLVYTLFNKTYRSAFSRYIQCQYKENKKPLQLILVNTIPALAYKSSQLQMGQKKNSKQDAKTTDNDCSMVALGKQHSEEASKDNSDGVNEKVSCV
Outline: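 Radioligand competition binding with scintillation counting; nonspecific binding defined by excess unlabelled ligand. Data as percent inhibition of control specific binding. IC50 by Hill-equation fit of competition curves; Ki by Cheng-Prusoff, with radioligand Kd from Scatchard plot.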

[7] = molecular target: T5, serotonin transporter (SERT) (Homo sapiens, UniProt P31645); experiment: Radioligand binding assay, serotonin transporter (SERT); conditions: binding assay, test compound 1×10^−6 M
T5 construct: expressed in transfected cells; host or cells: CHO cells
T5 sequence (P31645 whole entry): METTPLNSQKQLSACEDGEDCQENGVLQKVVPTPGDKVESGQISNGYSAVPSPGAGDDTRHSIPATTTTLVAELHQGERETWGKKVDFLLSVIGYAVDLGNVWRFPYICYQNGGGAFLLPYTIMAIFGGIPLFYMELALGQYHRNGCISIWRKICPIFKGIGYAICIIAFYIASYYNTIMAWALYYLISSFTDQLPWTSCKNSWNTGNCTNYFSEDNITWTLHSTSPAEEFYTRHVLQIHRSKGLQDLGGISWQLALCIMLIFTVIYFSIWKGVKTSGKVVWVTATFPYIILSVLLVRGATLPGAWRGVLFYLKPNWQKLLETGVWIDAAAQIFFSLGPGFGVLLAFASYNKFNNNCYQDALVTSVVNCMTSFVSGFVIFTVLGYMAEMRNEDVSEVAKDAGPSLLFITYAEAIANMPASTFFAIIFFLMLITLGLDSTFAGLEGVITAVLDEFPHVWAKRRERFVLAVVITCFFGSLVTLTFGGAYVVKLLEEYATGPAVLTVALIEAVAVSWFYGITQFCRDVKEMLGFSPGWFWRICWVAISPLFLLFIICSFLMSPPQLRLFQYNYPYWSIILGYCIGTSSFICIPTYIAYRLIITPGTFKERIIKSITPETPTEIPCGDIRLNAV
Outline: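 Radioligand competition binding with scintillation detection; specific binding is total minus binding under excess unlabelled ligand. Reported as % of control specific binding or % inhibition; IC50 from Hill-equation non-linear regression of competition curves, and Ki via Cheng-Prusoff using radioligand concentration and Scatchard-derived KD.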

[8] = tested on: α1 adrenergic receptors (rat cerebral cortex); experiment: Radioligand binding assay, adrenergic α1 receptors; conditions: test compound 1×10^−6 M
Outline: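 Values derive from radioligand displacement, with non-specific binding defined by excess cold ligand and detection by scintillation. Hill-fit IC50s were converted to Ki via Cheng-Prusoff using Scatchard-derived Kd; percent inhibition of control specific binding also reported.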

Compound | 5-HT1A [%] [1] | 5-HT6 [%] [2] | D2 [%] [3] | D3 [%] [4] | 5-HT7 [%] [5] | 5-HT2A [%] [6] | SERT [%] [7] | α1 [%] [8] | inhibition at 1 µM [1] | inhibition at 1 µM [2] | inhibition at 1 µM [3] | inhibition at 1 µM [4] | inhibition at 1 µM [5] | inhibition at 1 µM [6] | inhibition at 1 µM [7]
O=S(=O)(NC1CCN(CCOc2cccc3c2OCCO3)C1)c1ccccc1 (centres unmarked) [Compound 96, N-[1-[2-(2,3-Dihydro-1,4-benzodioxan-8-yloxy)ethyl]pyrrolidin-3-yl]-benzenesulphonamide] | 92% | 5% | 46% | 56% | 98% | 93% | 11% | 60% |  |  |  |  |  |  | 
O=S(=O)(NC1CCN(CCOc2cccc3[nH]ccc23)C1)c1cccc2ccccc12 (centres unmarked) [Compound 53, N-[1-[2-(1H-indol-4-yloxy)ethyl]pyrrolidin-3-yl]naphthalene-1-sulphonamide] |  |  |  |  |  |  |  | 88% | 90% | 54% | 74% | 99% | 102% | 85% | 56%
O=C1Cc2cc(S(=O)(=O)NCC3CN(CCOc4cccc5c4OCCO5)C3)ccc2N1 [Compound 189, N-[[1-[2-(2,3-Dihydro-1,4-benzodioxin-5-yloxy)ethyl]azetidin-3-yl]methyl]-2-oxo-indoline-5-sulphonamide] |  |  |  |  |  |  |  | 71% | 112% | 46% | 71% | 61% | 90% | 74% | 41%
Cc1c(S(=O)(=O)NCC2CN(CCOc3cccc4c3OCCO4)C2)sc2ccc(Cl)cc12 [Compound 175, 5-Chloro-N-[[1-[2-(2,3-dihydro-1,4-benzodioxin-5-yloxy)ethyl]azetidin-3-yl]methyl]-3-methyl-benzothiophene-2-sulphonamide] |  |  |  |  |  |  |  | 50% | 75% | 95% | 68% | 78% | 92% | 105% | 19%
Cn1ccc2c(S(=O)(=O)NCC3CCN(CCOc4cccc5ccccc45)C3)cccc21 (centres unmarked) [Compound 275, 1-Methyl-N-[[1-[2-(1-naphthyloxy)ethyl]pyrrolidin-3-yl]methyl]indole-4-sulphonamide] |  |  |  |  |  |  |  | 53% | 86% | 84% | 66% | 94% | 111% | 91% | 93%
O=S(=O)(NCC1CN(CCOc2cccc3ccccc23)C1)c1cc2ccc(Cl)cc2s1 [Compound 164, 6-Chloro-N-[[1-[2-(1-naphthyloxy)ethyl]azetidin-3-yl]methyl]-benzothiophene-2-sulphonamide] |  |  |  |  |  |  |  | 13% | 83% | 94% | 78% | 98% | 92% | 102% | 34%
O=S(=O)(NCC1CCN(CCOc2cccc3ccccc23)C1)c1cc2ccccc2s1 (centres unmarked) [Compound 268, N-[[1-[2-(1-Naphthyloxy)ethyl]pyrrolidin-3-yl]methyl]benzothiophene-2-sulphonamide] |  |  |  |  |  |  |  | 9% | 77% | 84% | 54% | 93% | 88% | 82% | 85%
Cn1ccc2cc(S(=O)(=O)NCC3CN(CCOc4cccc5c4OCCO5)C3)ccc21 [Compound 187, N-[[1-[2-(2,3-Dihydro-1,4-benzodioxin-5-yloxy)ethyl]azetidin-3-yl]methyl]-1-methyl-indole-5-sulphonamide] |  |  |  |  |  |  |  | 88% | 78% | 44% | 56% | 48% | 98% | 93% | 69%
O=S(=O)(NC1CCN(CCOc2cccc3[nH]ccc23)C1)c1ccc2ccccc2c1 (centres unmarked) [Compound 54, N-[1-[2-(1H-Indol-4-yloxy)ethyl]pyrrolidin-3-yl]naphthalene-2-sulphonamide] |  |  |  |  |  |  |  | 90% | 90% | 87% | 83% | 105% | 102% | 88% | 46%
Cc1c(S(=O)(=O)NCC2CN(CCOc3cccc4ccccc34)C2)sc2ccc(Cl)cc12 [Compound 167, 5-Chloro-3-methyl-N-[[1-[2-(1-naphthyloxy)ethyl]azetidin-3-yl]methyl]benzothiophene-2-sulphonamide] |  |  |  |  |  |  |  | 3% | 75% | 94% | 60% | 97% | 90% | 95% | 31%
O=S(=O)(NC1CCN(CCOc2cccc3[nH]ccc23)CC1)c1ccc2ccccc2c1 [Compound 61, N-[1-[2-(1H-Indol-4-yloxy)ethyl]-4-piperidine]naphthalene-2-sulphonamide] | 77% | 71% | 39% | 83% | 95% | 92% | 43% | 79% |  |  |  |  |  |  | 
O=S(=O)(NCC1CCN(CCOc2cccc3c2OCCO3)C1)c1ccc(Cl)c(Cl)c1 (centres unmarked) [Compound 301, 3,4-Dichloro-N-[[1-[2-(2,3-dihydro-1,4-benzodioxin-5-yloxy)ethyl]-pyrrolidin-3-yl]methyl]benzenesulphonamide] |  |  |  |  |  |  |  | 46% | 96% | 61% | -22% | 34% | 98% | 81% | 38%
O=S(=O)(NC1CCN(CCOc2cccc3c2OCCO3)CC1)c1cccc2ccccc12 [Compound 100, N-[1-[2-(2,3-dihydro-1,4-benzodioxan-8-yloxy)ethyl]-4-piperidine]-naphthalene-1-sulphonamide] | 94% | 28% | 41% | 74% | 103% | 97% | 57% | 87% |  |  |  |  |  |  | 
Cc1ccc(S(=O)(=O)NCC2CCN(CCOc3cccc4c3OCCO4)C2)cc1 (centres unmarked) [Compound 291, N-[[1-[2-(2,3-Dihydro-1,4-benzodioxin-5-yloxy)ethyl]pyrrolidin-3-yl]methyl]-4-methyl-benzenesulphonamide] |  |  |  |  |  |  |  | 66% | 94% | 19% | 29% | 33% | 80% | 63% | 66%
O=S(=O)(NCC1CCN(CCOc2nsc3ccccc23)C1)c1ccc2ccccc2c1 (centres unmarked) [Compound 44, N-[[1-[2-(1,2-Benzothiazol-3-yloxy)ethyl]pyrrolidin-3-yl]methyl]naphthalene-2-sulphonamide] |  |  |  |  |  |  |  | 46% | 62% | 81% | 76% | 52% | 68% | 78% | 25%
O=S(=O)(NCC1CN(CCOc2cccc3ccccc23)C1)c1ccc(F)c(Cl)c1 [Compound 172, 3-Chloro-4-fluoro-N-[[1-[2-(1-naphthyloxy)ethyl]azetidin-3-yl]methyl]-benzenesulphonamide] |  |  |  |  |  |  |  | 40% | 85% | 96% | 76% | 100% | 92% | 71% | 46%
